Reference: patent publication US8389532B2, “7-[2-[4-(6-fluoro-3-methyl-1,2-benzisoxazol-5-yl)-1-piperazinyl]ethyl]-2-(1-propynyl)-7H-pyrazolo-[4,3-E]-[1,2,4]-triazolo-[1,5-C]-pyrimidin-5-amine” (Merck Sharp & Dohme Corp., priority 2005, dated 2013)

What was measured:
haloperidol-induced EPS = experiment: EPS assay in haloperidol-sensitized Cebus apella monkeys; format: in vivo; settings: 30 mg/kg co-administered with haloperidol 0.3 mg/kg
Procedure: A test compound is administered orally (p.o.) at a dose ranging from 0.3-30 mg/kg, in conjunction with haloperidol. The studies are conducted using a within-subjects design such that each monkey receives all treatments (vehicle and doses of test compound) in a crossover, balanced design. The reduction in the maximum EPS score, as well as the dose-dependent delay in the onset of EPS are determined. In the EPS assay, four haloperidol-sensitized monkeys were co-administered the compound of formula I (30 mg/kg) and haloperidol (0.3 mg/kg) in a banana. A scoring system to rate the severity of each symptom was employed over a 6 hour observation period.

6-OHDA lesioned rats = experiment: 6-OHDA lesion of the middle forebrain bundle in rats (contralateral turning with subthreshold L-DOPA); format: in vivo, rat; settings: combined with sub-threshold L-DOPA
Procedure: 6-OHDA Lesion of the Middle Forebrain Bundle in Rats
Adult male Sprague-Dowley rats (Charles River, Calco, Como, Italy), weighing 275-300 g, are used in all experiments. The rats are housed in groups of 4 per cage, with free access to food and water, under controlled temperature and 12 hour light/dark cycle. The day before the surgery the rats are fasted over night with water ad libitum.
Unilateral 6-hydroxydopamine (6-OHDA) lesion of the middle forebrain bundle is performed according to the method described by Ungerstedt et al. (Brain Research, 1971, 6-OHDA and Cathecolamine Neurons, North Holland, Amsterdam, 101-127), with minor changes. Briefly, the animals are anaesthetized with chloral hydrate (400 mg/kg, ip) and treated with desipramine (10 mpk, ip) 30 min prior to 6-OHDA injection in order to block the uptake of the toxin by the noradrenergic terminals. Then, the animals are placed in a stereotaxic frame. The skin over the skull is reflected and the stereotaxic coordinates (−2.2 posterior from bregma (AP), +1.5 lateral from bregma (ML), 7.8 ventral from dura (DV) are taken, according to the atlas of Pellegrino et al (Pellegrino L. J., Pellegrino A. S. and Cushman A. J., A Stereotaxic Atlas of the Rat Brain, 1979, New York: Plenum Press). A burr hole is then placed in the skull over the lesion site and a needle, attached to a Hamilton syringe, is lowered into the left MFB. Then 8 μg 6-OHDA-HCl is dissolved in 4 μl of saline with 0.05% ascorbic acid as antioxidant, and infused at the constant flow rate of 1 μl/1 min using an infusion pump. The needle is withdrawn after additional 5 min and the surgical wound is closed and the animals left to recover for 2 weeks.
Any rat not showing at least 200 complete turns/2 h is not included in the study.
Selected rats receive the test drug 3 days after the priming test (maximal dopamine receptor supersensitivity).

[1] = target: T1, Human A2a Adenosine Receptor (Homo sapiens, UniProt P29274); experiment: Human adenosine A2a receptor competition binding assay; settings: [3H]-SCH 58261 0.5 nM, human A2a membranes
T1 construct: purchased Perkin Elmer Life Sciences RBHA2AM
T1 sequence (P29274 whole entry): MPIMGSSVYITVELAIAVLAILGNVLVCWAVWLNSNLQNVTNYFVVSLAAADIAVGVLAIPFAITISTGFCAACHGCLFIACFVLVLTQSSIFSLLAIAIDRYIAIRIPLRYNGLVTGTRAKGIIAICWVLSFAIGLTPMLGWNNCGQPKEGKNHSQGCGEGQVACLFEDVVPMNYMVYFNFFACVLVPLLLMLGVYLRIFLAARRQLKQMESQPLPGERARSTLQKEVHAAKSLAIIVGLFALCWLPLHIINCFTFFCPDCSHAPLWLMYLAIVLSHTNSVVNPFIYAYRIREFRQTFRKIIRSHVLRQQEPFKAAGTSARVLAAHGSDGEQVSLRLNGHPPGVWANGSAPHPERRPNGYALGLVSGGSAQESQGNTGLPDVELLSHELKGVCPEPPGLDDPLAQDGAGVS
Procedure: (§1) Human Adenosine A2a and A1 Receptor Competition Binding Assay Protocol
A2a: Human A2a Adenosine Receptor membranes, Catalog #RBHA2AM, Perkin Elmer Life Sciences, Shelton Conn. Dilute to 17 μg/100 μl in membrane dilution buffer (see below).
(§2) Membrane dilution buffer: Dulbecco's Phosphate Buffered Saline (Gibco/BRL)+10 mM MgCl2.
(§3) Compound Dilution Buffer: Dulbecco's Phosphate Buffered Saline (Gibco/BRL)+10 mM MgCl2 supplemented with 1.6 mg/ml methyl cellulose and 16% DMSO. Prepared fresh daily.
A2a: [3H]-SCH 58261, custom synthesis, AmershamPharmacia Biotech, Piscataway, N.J. Stock is prepared at 1 nM in membrane dilution buffer. Final assay concentration is 0.5 nM.
A2a: To determine non-specific binding, add 100 nM CGS 15923 (RBI, Natick, Mass.). Working stock is prepared at 400 nM in compound dilution buffer.
(§4) Prepare 1 mM stock solutions of compounds in 100% DMSO. Dilute in compound dilution buffer. Test at 10 concentrations ranging from 3 μM to 30 pM. Prepare working solutions at 4× final concentration in compound dilution buffer.
(§5) Perform assays in deep well 96 well plates. Total assay volume is 200 μl. Add 50 μl compound dilution buffer (total ligand binding) or 50 μl CGS 15923 working solution (A2a non-specific binding) or 50 μl NECA working solution (A1 non-specific binding) or 50 μl of drug working solution. Add 50 μl ligand stock ([3H]-SCH 58261 for A2a, [3H]-DPCPX for A1). […]

A2a receptor = target: T2, A2a receptor (Rattus norvegicus, UniProt P30543); experiment: Ex vivo binding study to show duration of receptor occupancy (striatal homogenate, 3H-SCH 58261); format: in vivo; settings: rats dosed 1 mg/kg; for receptor occupancy at 1 mg/kg: rat, 4 hours prior to sacrifice, read-out: decrease in 3H-SCH 58261 binding (receptor occupancy)
T2 construct: The A2a receptor-rich striatal nucleus was dissected and homogenized in buffer solution; from tissue; host or cells: rat striatum homogenate
T2 sequence (P30543 whole entry): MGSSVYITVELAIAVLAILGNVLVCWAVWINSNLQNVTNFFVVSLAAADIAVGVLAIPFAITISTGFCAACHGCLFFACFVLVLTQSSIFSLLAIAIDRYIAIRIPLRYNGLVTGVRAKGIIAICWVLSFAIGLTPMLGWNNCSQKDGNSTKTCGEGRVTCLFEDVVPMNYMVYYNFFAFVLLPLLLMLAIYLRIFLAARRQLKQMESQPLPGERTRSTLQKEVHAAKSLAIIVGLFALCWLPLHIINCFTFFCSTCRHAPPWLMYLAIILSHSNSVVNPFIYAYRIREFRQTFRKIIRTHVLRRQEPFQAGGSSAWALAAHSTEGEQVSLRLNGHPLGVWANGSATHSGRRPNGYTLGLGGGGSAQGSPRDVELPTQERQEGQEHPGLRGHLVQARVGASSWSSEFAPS
Procedure: Ex Vivo Binding Study to Show Duration of Receptor Occupancy:
Rats were dosed with 1 mg/kg of the compound of formula I and the compound of formula II (generically disclosed in U.S. Pat. No. 6,897,217)
[drawing 4] for 4, 8, 12, and 16 hours prior to sacrifice and removal of brains. The A2a receptor-rich striatal nucleus was dissected and homogenized in buffer solution. Striatal homogenate was incubated with the A2a antagonist radioligand ^3H-SCH 58261 (see WO 96/38728) prior to separation of bound and free radioactivity by filtration. Bound radioligand on filters was dried, soaked with scintillation fluid, and counted. Homogenates from striata of vehicle-treated rats treated with the same experimental conditions defined the quantity of bound radioligand in the absence of test compound.

[2] = system: haloperidol-induced catalepsy; experiment: Haloperidol-induced catalepsy in the rat; format: in vivo; settings: @ 4 h, rats
Procedure: Haloperidol-Induced Catalepsy in the Rat Male Sprague-Dawley rats (Charles River, Calco, Italy) weighing 175-200 g are used. The cataleptic state is induced by the subcutaneous administration of the dopamine receptor antagonist haloperidol (1 mg/kg, sc), 90 min before testing the animals on the vertical grid test. For this test, the rats are placed on the wire mesh cover of a 25×43 plexiglass cage placed at an angle of about 70 degrees with the bench table. The rat is placed on the grid with all four legs abducted and extended (“frog posture”). The use of such an unnatural posture is essential for the specificity of this test for catalepsy. The time span from placement of the paws until the first complete removal of one paw (descent latency) is measured maximally for 120 sec. The selective A2A adenosine antagonists under evaluation are administered orally at doses ranging between 0.03 and 3 mg/kg, 1 and 4 h before scoring the animals.

A1 receptor = target: T3, A1 receptor (Homo sapiens, UniProt P30542); experiment: Human adenosine A1 receptor competition binding assay (selectivity vs A2a); settings: A1 ligand [3H]-DPCPX
T3 sequence (P30542 1-326): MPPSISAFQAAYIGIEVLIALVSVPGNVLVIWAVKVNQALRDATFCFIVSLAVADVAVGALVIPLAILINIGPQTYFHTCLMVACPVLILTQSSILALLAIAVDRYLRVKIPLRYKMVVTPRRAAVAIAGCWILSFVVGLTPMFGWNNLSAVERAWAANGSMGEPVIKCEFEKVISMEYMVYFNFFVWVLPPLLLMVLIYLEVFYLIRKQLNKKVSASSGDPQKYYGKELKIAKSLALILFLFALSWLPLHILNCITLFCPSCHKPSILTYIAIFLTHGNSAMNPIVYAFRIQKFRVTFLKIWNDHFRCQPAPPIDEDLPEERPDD
Procedure: as §1, §2, §3
A1: [3H]-DPCPX, AmershamPharmacia Biotech, Piscataway, N.J. Stock is prepared at 2 nM in membrane dilution buffer. Final assay concentration is 1 nM.
A1: To determine non-specific binding, add 100 μM NECA (RBI, Natick, Mass.). Working stock is prepared at 400 μM in compound dilution buffer.
as §4
as §5, with “A1). Add 100 μl of diluted membranes containing the appropriate receptor. Mix. Incubate at room temperature for 90 minutes.” for “A1).”
Selectivity is determined by dividing Ki for A1 receptor by Ki for A2a receptor. […]

Compound	effect on haloperidol-induced EPS, three of four subjects (haloperidol-induced EPS; 6 hr observation period)	effect on haloperidol-induced EPS, fourth subject (haloperidol-induced EPS; compared with haloperidol alone)	contralateral turning (6-OHDA lesioned rats; 0.1 mpk orally) [rotations]	contralateral turning (6-OHDA lesioned rats; 0.3 mpk orally) [rotations]	contralateral turning (6-OHDA lesioned rats; 1 mpk orally) [rotations]	contralateral turning (6-OHDA lesioned rats; 3 mpk orally) [rotations]	Ki [1] [nM]	receptor occupancy at 1 mg/kg (A2a receptor) [%]	displacement of radiolabel (3H-SCH 58261) (A2a receptor; 12 hours) [%]	inhibition of catalepsy ([2]; 0.3 mpk orally) [%]	inhibition of catalepsy ([2]; 1 mpk orally) [%]	inhibition of catalepsy ([2]; 3 mpk orally) [%]	Selectivity (Ki for A1 receptor divided by Ki for A2a receptor) (A1 receptor)	3H-SCH 58261 radioligand binding (receptor occupancy) (A2a receptor; 8 hours)
CC#Cc1nc2c3cnn(CCN4CCN(c5cc6c(C)noc6cc5F)CC4)c3nc(N)n2n1 [compound of formula I, 7-[2-[4-(6-fluoro-3-methyl-1,2-benzisoxazol-5-yl)-1-piperazinyl]ethyl]-2-(1-propynyl)-7H-pyrazolo-[4,3-e]-[1,2,4]-triazolo[1,5-c]pyrimidin-5-amine]	completely blocked haloperidol-induced EPS	delayed onset and reduced severity of EPS	218±142	406±167	360±178	403±125	0.43	42	40	28	47	53	greater than 2500 fold	
CC#Cc1nc2c3cnn(CCN4CCN(c5cc(-c6noc(C)n6)ccc5F)CC4)c3nc(N)n2n1 [formula II, reference compound]								47						restored to near vehicle-treated levels
